The values that follow come from patent US11779600B2, “Methods of treating or preventing alzheimer's disease and associated conditions” (CEDARS-SINAI MEDICAL CENTER, priority 2016, dated 2023).

In one test the test system is 6E10+-Aβ plaque. Description: 6E10+-Aβ plaque burden in ADtg mouse brain sections. Type of test: in vivo. Particulars: same brain sections (FIG. 11C). Here is the method:
ADtg mice (10 months old) received subcutaneous injections of GA [also known as Cop-1 and Copaxone®; 100 μg in phosphate-buffered saline (PBS)] or PBS alone (control group) twice a week for 1 week and then once a week for 8 weeks. For evaluation of innate immune infiltration to the brain by flow cytometry, 10-month-old ADtg mice received subcutaneous injections of GA ([…] in PBS) or PBS alone twice a week for 1 week and then once a week for 3 weeks. At the end of the study, all mice were anaesthetized and then perfused with ice-cold PBS with 0.5 mM EDTA, after which their organs were collected and analyzed or fixed in 2.5% paraformaldehyde (Sigma-Aldrich), and cryoprotected with 30% sucrose for further histological analysis. CD115^+ monocytes from mice donors were isolated as previously reported (Koronyo et al., Brain: a journal of neurology 2015,138:2399-2422). […] For microscopic analysis, we used a Carl Zeiss Axio Imager Z1 fluorescence microscope equipped with ApoTome (Carl Zeiss MicroImaging, Inc.). […] The number and area (μm^2) of OPN+ cells, Iba1^+CD45^hi cells, GFAP^+ cells, Thio-S^+ amyloid-βplaques and 4G8^+ amyloid-βplaques were determined by examining four to six coronal sections per mouse at 150-μm intervals over an area covering both the hippocampal and cortical (including entorhinal and cingulate cortex) regions. […]

A further test has as its system MΦ^BM. Description: Macrophage cell length measurement. The format is cell-based, mouse. Particulars: GA treatment (FIG. 16A-16B). Here is the method:
A set of three Stealth OPN siRNAs made up of 25-bp duplex oligoribonucleotides each were used with sequences corresponding to the sense and antisense strands of OPN (Invitrogen). Equal amounts (100 nM each) of siRNAs were mixed and diluted in OptiMEM (Gibco) to finalconcentration of 100nmol/L, then transiently transfected into MΦ^BM using Lipofectamine® RNAiMAX Transfection Reagent (Invitrogen), per manufacturer's protocol. Control macrophages were transfected with Stealth RNAi™ siRNA Negative Control. MΦ^BM were incubated for 48 hours after transfection, and were used for subsequent experiments.
The long and short axes of cells were manually measured in μm from microscopic images (McWhorter et al., Proceedings of the National Academy of Sciences of the U.S. Pat. No. 2,013,110:17253-17258) using length tools in the Axiovision Rel. 4.8 software package. At least 100 cells were examined in each experiment where individual cells were assayed by microscopy.
Macrophages can acquire distinct phenotypes and biological functions depending on their microenvironment. Past studies reported that OPN promotes macrophages to switch to the anti-inflammatory M2 phenotype. The possible role of OPN in macrophage polarization towards an anti-inflammatory phenotype, which has been associated with elongated cell shape was explored. […]

For glatiramer acetate [GA], the “6E10+-Aβ plaque burden compared with PBS controls” value with 6E10+-Aβ plaque is “substantial reduction”. Moreover, the cell length increase in the test with MΦ^BM is on record as 1.3 fold.
